Measurements taken from EP2766361B1, “8-CARBAMOYL-2-(2,3-DISUBSTITUTED PYRID-6-YL)-1,2,3,4-TETRAHYDROISOQUINOLINE DERIVATIVES AS APOPTOSIS-INDUCING AGENTS FOR THE TREATMENT OF CANCER AND IMMUNE AND AUTOIMMUNE DISEASES” (priority 2011, dated 2013).

Key:
[1] = tested on: mouse FL5.12 cells transfected with Bcl-xL; assay: FL5.12 cellular assay (cell viability, CellTiter-Glo); format: cell-based; conditions: IL-3-depleted, 3% FBS assay media, 24 hours, read-out: FL5.12 Bcl-xL, -IL3, EC50
Experimental: Cell viability was assayed using the CellTiter-Glo assay (Promega Corp., Madison, WI) according to the manufacturer instructions. Individual determinations were the result of duplicate values. […] Table 2. In Vitro Data

[2] = tested on: Molt-4 human acute lymphoblastic leukemia cells; assay: Molt-4 cellular assay (cell viability, MTS); format: cell-based; conditions: 10% human serum, 48 hours
Experimental: Molt-4 (ATCC, Manassas, VA) human acute lymphoblastic leukemia cells were plated 50,000 cells per well in 96-well tissue culture plates in a total volume of 100 µL tissue culture medium supplemented with 10% human serum (Invitrogen, Carlsbad, CA) and treated with a 3-fold serial dilution of the compounds of interest from 5 µM to […]. Each concentration was tested in duplicate at least 3 separate times. The number of viable cells following 48 hours of compound treatment was determined using the CellTiter 96® Aqueous non-radioactive cell proliferation MTS assay according to manufacturer's recommendations (Promega Corp., Madison, WI).

[3] = Single dose pharmacokinetics, oral bioavailability; format: in vivo, Sprague-Dawley rats; conditions: rat, in vivo, po
Experimental: The single dose pharmacokinetics of select compounds were evaluated in Sprague-Dawley rats (Charles River) after a 5 mg/kg oral dose (n = 3) (10% DMSO in PEG-400) administered by gavage or by 5 mg/kg IV bolus dose (n = 3) (10% DMSO in PEG-400). Compound and the internal standard were separated from each other and coextracted contaminants on a 50 mm × 3 mm Keystone Betasil CN 5 µm column with an acetonitrile/0.1% trifluoroacetic acid mobile phase (50:50, by volume) at a flow rate of 0.7 mL/min. Analysis was performed on a Sciex API3000 biomolecular mass analyzer with a heated nebulizer interface. Compound and internal standard peak areas were determined using Sciex MacQuan software. The plasma drug concentration of each sample was calculated by least-squares linear regression analysis (nonweighted) of the peak area ratio (parent/internal standard) of the spiked plasma standards versus concentration. The plasma concentration data were submitted to multiexponential curve fitting using WinNonlin.3. The area under the plasma concentration-time curve was calculated using the linear trapezoidal rule for the plasma concentration-time profiles.
One way to calculate bioavailability of a drug or agent is by dividing the plasma concentration following an oral dose by the concentration following an intravenous dose.

SMILES: O=C(Nc1nc2ccccc2s1)c1cccc2c1CN(c1ccc(-c3cnn(CC45CC6CC(CC(C6)C4)C5)c3)c(C(=O)O)n1)CC2 [Example 1, 6-[8-(1,3-benzothiazol-2-ylcarbamoyl)-3,4-dihydroisoquinolin-2(1H)-yl]-3-{1-[tricyclo[3.3.1.1^3,7]dec-1-ylmethyl]-1H-pyrazol-4-yl}pyridine-2-carboxylic acid]
- EC50 [1]: 39 nM
- EC50 [2]: 201 nM

SMILES: O=C(Nc1nc2ccccc2s1)c1cccc2c1CN(c1ccc(-c3cnn(CC45CC6CC(CC(C6)O4)C5)c3)c(C(=O)O)n1)CC2 [Example 13, 6-[8-(1,3-benzothiazol-2-ylcarbamoyl)-3,4-dihydroisoquinolin-2(1H)-yl]-3-[1-(2-oxatricyclo[3.3.1.1^3,7]dec-1-ylmethyl)-1H-pyrazol-4-yl]pyridine-2-carboxylic acid]
- EC50 [1]: 71 nM
- bioavailability ([3]; 5 mg/kg): 10%

SMILES: Cc1c(OC23CC4CC(CC(C4)C2)C3)cccc1-c1ccc(N2CCc3cccc(C(=O)Nc4nc5ccccc5s4)c3C2)nc1C(=O)O [Example 28, 6-[8-(1,3-benzothiazol-2-ylcarbamoyl)-3,4-dihydroisoquinolin-2(1H)-yl]-3-{2-methyl-3-[tricyclo[3.3.1.1^3,7]dec-1-yloxy]phenyl}pyridine-2-carboxylic acid]
- EC50 [1]: 22 nM
- EC50 [2]: 526 nM

SMILES: Cc1c(-c2ccc(N3CCc4cccc(C(=O)Nc5nc6ccccc6s5)c4C3)nc2C(=O)O)cc(C#N)n1CC12CC3CC(CC(C)(C3)O1)C2 [Example 72, 6-[8-(1,3-benzothiazol-2-ylcarbamoyl)-3,4-dihydroisoquinolin-2(1H)-yl]-3-{5-cyano-2-methyl-1-[(3-methyl-2-oxatricyclo[3.3.1.1^3,7]dec-1-yl)methyl]-1H-pyrrol-3-yl}pyridine-2-carboxylic acid]
- EC50 [1]: 0.2 nM
- EC50 [2]: 35 nM

SMILES: Cc1c(-c2ccc(N3CCc4cccc(C(=O)Nc5cn6ccccc6n5)c4C3)nc2C(=O)O)cnn1CC12CC3CC(CC(C3)C1)C2 [Example 49, 6-[8-(imidazo[1,2-a]pyridin-2-ylcarbamoyl)-3,4-dihydroisoquinolin-2(1H)-yl]-3-[5-methyl-1-(tricyclo[3.3.1.1^3,7]dec-1-ylmethyl)-1H-pyrazol-4-yl]pyridine-2-carboxylic acid]
- EC50 [1]: 5 nM
- bioavailability ([3]; 1 mg/kg): 15%

SMILES: Cc1c(-c2ccc(N3CCc4cccc(C(=O)Nc5nc6ccccc6s5)c4C3)nc2C(=O)O)cccc1N(C)C(=O)C12CC3CC(CC(C3)C1)C2 [Example 52, 6-[8-(1,3-benzothiazol-2-ylcarbamoyl)-3,4-dihydroisoquinolin-2(1H)-yl]-3-(2-methyl-3-{methyl[tricyclo[3.3.1.1^3,7]dec-1-ylcarbonyl]amino}phenyl)pyridine-2-carboxylic acid]
- EC50 [1]: 3 nM
- EC50 [2]: 29 nM

SMILES: O=C(Nc1nc2ccccc2s1)c1cccc2c1CN(c1ccc(-c3cnn(CC45CC6CC(CC(C6)C4)C5)c3Cl)c(C(=O)O)n1)CC2 [Example 42, 6-[8-(1,3-benzothiazol-2-ylcarbamoyl)-3,4-dihydroisoquinolin-2(1H)-yl]-3-{5-chloro-1-[tricyclo[3.3.1.1^3,7]dec-1-ylmethyl]-1H-pyrazol-4-yl}pyridine-2-carboxylic acid]
- EC50 [1]: 0.5 nM
- bioavailability ([3]; 1 mg/kg): 15%

SMILES: COC12CC3CC(CC(Cn4ncc(-c5ccc(N6CCc7cccc(C(=O)Nc8nc9ccccc9s8)c7C6)nc5C(=O)O)c4C)(C3)C1)C2 [Example 16, 6-[8-(1,3-benzothiazol-2-ylcarbamoyl)-3,4-dihydroisoquinolin-2(1H)-yl]-3-(1-{[3-methoxytricyclo[3.3.1.1^3,7]dec-1-yl]methyl}-5-methyl-1H-pyrazol-4-yl)pyridine-2-carboxylic acid]
- EC50 [1]: < 1 nM
- bioavailability ([3]; 5 mg/kg): 20%

SMILES: COCCOC12CC3CC(CC(Cn4ncc(-c5ccc(N6CCc7cccc(C(=O)Nc8nc9ccccc9s8)c7C6)nc5C(=O)O)c4C)(C3)C1)C2 [Example 45, 6-[8-(1,3-benzothiazol-2-ylcarbamoyl)-3,4-dihydroisoquinolin-2(1H)-yl]-3-(1-{[3-(2-methoxyethoxy)tricyclo[3.3.1.1^3,7]dec-1-yl]methyl}-5-methyl-1H-pyrazol-4-yl)pyridine-2-carboxylic acid]
- EC50 [1]: 0.9 nM
- EC50 [2]: 4 nM

SMILES: COCCC1(Cn2ncc(-c3ccc(N4CCc5cccc(C(=O)Nc6nc7ccccc7s6)c5C4)nc3C(=O)O)c2C)CCCCCCC1 [Example 46, 6-[8-(1,3-benzothiazol-2-ylcarbamoyl)-3,4-dihydroisoquinolin-2(1H)-yl]-3-(1-{[1-(2-methoxyethyl)cyclooctyl]methyl}-5-methyl-1H-pyrazol-4-yl)pyridine-2-carboxylic acid]
- EC50 [1]: 1 nM
- bioavailability ([3]; 1 mg/kg): 58%

SMILES: Cc1c(-c2ccc(N3CCc4cccc(C(=O)Nc5nc6ccccc6s5)c4C3C)nc2C(=O)O)cnn1CC12CC3CC(CC(C3)C1)C2 (stereo not drawn) [Example 43, 6-[8-(1,3-benzothiazol-2-ylcarbamoyl)-1-methyl-3,4-dihydroisoquinolin-2(1H)-yl]-3-[5-methyl-1-(tricyclo[3.3.1.1^3,7]dec-1-ylmethyl)-1H-pyrazol-4-yl]pyridine-2-carboxylic acid]
- EC50 [1]: 9 nM
- bioavailability ([3]; 1 mg/kg): 20%

SMILES: Cc1c(-c2ccc(N3CCc4cccc(C(=O)Nc5nc6ccccc6s5)c4C3)nc2C(=O)O)cc(C#N)n1CC12CC3CC(CC(C3)C1)C2 [Example 23, 6-[8-(1,3-benzothiazol-2-ylcarbamoyl)-3,4-dihydroisoquinolin-2(1H)-yl]-3-[5-cyano-2-methyl-1-(tricyclo[3.3.1.1^3,7]dec-1-ylmethyl)-1H-pyrrol-3-yl]pyridine-2-carboxylic acid]
- EC50 [1]: < 1 nM
- EC50 [2]: 16 nM

SMILES: Cc1c(-c2ccc(N3CCc4cccc(C(=O)Nc5nc6cccnc6s5)c4C3)nc2C(=O)O)cnn1CC12CC3CC(CC(C3)C1)C2 [Example 24, 3-[5-methyl-1-(tricyclo[3.3.1.1^3,7]dec-1-ylmethyl)-1H-pyrazol-4-yl]-6-[8-([1,3]thiazolo[5,4-b]pyridin-2-ylcarbamoyl)-3,4-dihydroisoquinolin-2(1H)-yl]pyridine-2-carboxylic acid]
- EC50 [1]: < 1 nM
- bioavailability ([3]; 5 mg/kg): 29%

SMILES: O=C(Nc1nc2ccccc2s1)c1cccc2c1CN(c1ccc(-c3cnn(CC4C5CC6CC(C5)CC4C6)c3)c(C(=O)O)n1)CC2 (stereo not drawn) [Example 10, 6-[8-(1,3-benzothiazol-2-ylcarbamoyl)-3,4-dihydroisoquinolin-2(1H)-yl]-3-[1-(tricyclo[3.3.1.1^3,7]dec-2-ylmethyl)-1H-pyrazol-4-yl]pyridine-2-carboxylic acid]
- EC50 [1]: 29 nM
- EC50 [2]: 487 nM

SMILES: Cc1c(-c2ccc(N3CCc4cccc(C(=O)Nc5nc6ccccc6s5)c4C3)nc2C(=O)O)cc(C#N)n1CC12CC3CC(CC(C3)O1)C2 [Example 71, 6-[8-(1,3-benzothiazol-2-ylcarbamoyl)-3,4-dihydroisoquinolin-2(1H)-yl]-3-[5-cyano-2-methyl-1-(2-oxatricyclo[3.3.1.1^3,7]dec-1-ylmethyl)-1H-pyrrol-3-yl]pyridine-2-carboxylic acid]
- EC50 [1]: 1 nM

SMILES: O=C(Nc1nc2ccccc2s1)c1cccc2c1CN(c1ccc(-c3cnn(CC4CC5CCC(C4)N5C(=O)OCc4ccccc4)c3)c(C(=O)O)n1)CC2 (stereo not drawn) [Example 84, 6-[8-(1,3-benzothiazol-2-ylcarbamoyl)-3,4-dihydroisoquinolin-2(1H)-yl]-3-[1-({8-[(benzyloxy)carbonyl]-8-azabicyclo[3.2.1]oct-3-yl}methyl)-1H-pyrazol-4-yl]pyridine-2-carboxylic acid]
- EC50 [1]: > 1000 nM
